Where two headings read alike, the source gives them in different places.
Assays:
[1] = test system: KMS-12-BM myeloma cell line; assay: Pim cell assay: phospho-BAD (S112) and total BAD in KMS-12-BM cells; type: cell-based; settings: 1 hour and 50 minutes incubation
Experimental: The KMS-12-BM myeloma cell line was used to determine the in vitro cellular inhibition of Pim kinases. Disruption of Pim signaling by Pim inhibitors was determined by measuring the levels of phospho-BAD (S112) and total BAD. […] The cells were then incubated overnight at 37° C., 5% CO2. […] In addition to the 10-point dosing curve of the test compound, DMSO alone was run as a control. This dilution in DMSO was then diluted again into cell growth medium. Aliquots (11.1 uL) of the compound diluted in growth medium were then transferred to the appropriate wells of the 96-well plates containing cells to yield a final DMSO concentration of 0.3%. The cell plates were then incubated with compound for 1 hour and 50 minutes at 37° C., 5% CO2. After the 1 hour and 50 min incubation, the cell plates were spun at 1000 RPM for 10 minutes and the compound-containing medium was removed. […] The cell plates containing lysis buffer were then immediately stored at −70° C. These prepared lysates were then assayed for phospho-(S112) and total-BAD according to the manufacturer's protocol (Meso Scale Diagnostics, Cat # K15103D-3). The plates were read on the MSD Sector Imager 6000, and results were calculated according to the assay protocol: ((% Phosphoprotein=((2×Phospho signal)/(Phospho signal+Total signal))×100)).

[2] = biological target: Pim-2 (Homo sapiens (Human), UniProt Q9P1W9); assay: Pim enzyme assay (HTRF, phosphorylation of biotinylated-BAD (S112) peptide), Pim-2; type: biochemical
Text: (§1) Full-length human cDNAs encoding Pim-1 (MGC ID 3913552) or Pim-2 (IMAGE ID 5092935) were purchased from Invitrogen, Carlsbad, Calif. These cDNAs were used as templates in PCR reactions to produce full-length DNA clones of the PIMs. Oligonucleotide PCR primers for Pim-1 were 5′-[…]-3′ and 5′-[…]-3′. Oligonucleotide PCR primers for Pim-2 were 5′-[…]-3′ and 5′-[…]-3′. PCR products were digested with BclI and EcoRI for Pim-1 and BamHI and EcoRI for Pim-2 and ligated into a modified baculovirus transfer vector (pFastBac 1) cleaved with BamHI and EcoRI. For bacterial expression, the same cleaved PCR products encoding Pim-1 or Pim-2 were ligated into a modified E. coli expression vector pET28(a) cleaved with BamHI and EcoRI. Amino-terminal hexahistidine tags followed by a thrombin cleavage site were previously added to the vectors using standard methods of molecular biology. Recombinant baculoviruses expressing Pim-1 or Pim-2 were made using standard methods (Fastbac manual, Invitrogen, Carlsbad, Calif.). Infection of Sf9 cells was done at an m.o.i. of greater than 5 for 24-48 h. Cells were harvested by centrifugation and frozen at −80 C. For E. coli expression, cells carrying pET28-His6-Th-Pim-1 or pET28-His6-Th-Pim-2 were picked from a single colony and grown o/n in LB media. The o/n culture was used to inoculate a 2 liter flask with 500 mL media. This was grown o/n and used to inoculate 15-20 liters of Terrific Broth in a New Brunswick Scientific fermentor. The E. coli were grown at 37° C. to and OD600>1.6. The temperature was dropped to 18° C. and o/n expression was induced with 0.5 mM IPTG. Cells were harvested by centrifugation and frozen at −80° C.
(§2) The frozen cell pellets were thawed by stirring in chilled lysis buffer (0.05 M HEPES, pH 8.0, 0.25 M NaCl, 0.01 M 2-mercaptoethanol, 10% (w/v) glycerol, 0.5% (v/v) protease inhibitor cocktail (Sigma P-8340) at a ratio of 1 L/200 g cells until homogeneous. The thawed suspension was applied to a microfluidizer at 10,000 PSI to disrupt the cells and the whole lysates were clarified by centrifugation at 50,000×g for 90 min, 4° C. Imidazole was added to the clarified lysate to a final concentration of 2.5 mM and the lysate was mixed with 10 mL of Talon resin (Clontech) and the slurry rocked gently overnight at 4° C. The slurry was centrifuged at 1,000×g for 5 min, the supernatant decanted, and the resin suspended in 40 mL of lysis wash buffer (lysis buffer at 0.75 M NaCl). This step was repeated 3× and the resin was transferred to a 2.5 cm glass column. Ten column volumes of wash buffer (0.05 M HEPES, pH 8.0, 0.1 M NaCl, 0.01 M 2-mercaptoethanol, 10% (w/v) glycerol) were applied to the resin followed by 10 column volumes of elution buffer (0.05 M HEPES, pH 8.0, 0.25 M NaCl, 0.01 M 2-mercaptoethanol, 10% (w/v) glycerol, 0.1 M imidazole). Fractions were analyzed by SDS-PAGE and those containing the protein of interest were pooled and concentrated. The concentrated protein was applied to an Amersham Superdex 75 (XK 26/60) column equilibrated in 0.025 M Tris-HCl, pH 7.5, 0.1 M NaCl, 0.01 M 2-mercaptoethanol, 10% (w/v) glycerol. […] Fractions containing the monomeric protein of interest were pooled, concentrated to ˜2 mg/mL, and stored at −80° C.
(§3) The phosphorylation of biotinylated-BAD (S112) peptide by full length recombinant Pim-1, Pim-2, or Pim-3 protein was detected with streptavidin:Allophycocyanin (APC) conjugate and a europium (Eu) labeled antibody directed against phosphorylated-BAD (S112). Excitation of Eu by a high energy laser light (337 nm) leads to a transfer of energy to the APC molecule, and results in an emission at 665 nm. The fluorescence is directly proportional to the amount of phosphorylated BAD peptide present in the reaction.

[3] = biological target: Pim-1 (Homo sapiens (Human), UniProt P11309); assay: Pim enzyme assay (HTRF, phosphorylation of biotinylated-BAD (S112) peptide), Pim-1; type: biochemical
Text: as §1, §2, §3

[4] = Homo sapiens, KMS-12-BM, read-out: KMS-12-BM IC50 IP
[5] = full length recombinant Pim-2, biotinylated-BAD (S112) peptide, HTRF, 96-well, read-out: Pim-2 IC50 IP
[6] = full length recombinant Pim-1, biotinylated-BAD (S112) peptide, HTRF, 96-well, read-out: Pim-1 IC50 IP
[7] = Homo sapiens, KMS-12-BM, read-out: KMS12_Cell_IC50
[8] = full length recombinant Pim-2, biotinylated-BAD (S112) peptide, HTRF, read-out: Pim2_IC50
[9] = full length recombinant Pim-1, biotinylated-BAD (S112) peptide, HTRF, read-out: Pim_1_IC50

Sequence of Pim-1 (P11309 whole entry): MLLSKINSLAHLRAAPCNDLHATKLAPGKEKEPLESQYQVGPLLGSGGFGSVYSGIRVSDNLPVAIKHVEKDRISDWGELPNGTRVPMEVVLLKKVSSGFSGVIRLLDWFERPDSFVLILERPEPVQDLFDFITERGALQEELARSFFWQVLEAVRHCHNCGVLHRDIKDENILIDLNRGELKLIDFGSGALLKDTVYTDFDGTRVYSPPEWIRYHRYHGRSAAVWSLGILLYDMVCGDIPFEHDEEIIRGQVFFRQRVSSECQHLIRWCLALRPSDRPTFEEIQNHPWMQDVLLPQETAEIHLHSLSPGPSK
Sequence of Pim-2 (Q9P1W9 whole entry): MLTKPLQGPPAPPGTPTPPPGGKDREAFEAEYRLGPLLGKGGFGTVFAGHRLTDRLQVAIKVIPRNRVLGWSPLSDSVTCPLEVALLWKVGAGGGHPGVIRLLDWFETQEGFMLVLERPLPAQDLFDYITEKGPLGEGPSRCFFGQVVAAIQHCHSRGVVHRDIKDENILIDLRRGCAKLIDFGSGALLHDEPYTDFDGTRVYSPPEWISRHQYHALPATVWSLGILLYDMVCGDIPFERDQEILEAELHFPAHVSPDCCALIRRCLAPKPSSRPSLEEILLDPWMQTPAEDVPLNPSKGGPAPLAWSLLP

SMILES	IC50 [1, 4] [nM]	IC50 [2, 5] [nM]	IC50 [3, 6] [nM]	IC50 [1, 7] [nM]	IC50 [2, 8] [nM]	IC50 [3, 9] [nM]	also measured
N[C@H]1CCCN(c2ccncc2Nc2ncc3ccc(-c4cc(C(=O)NC5CC5)ccc4F)nn23)C1 [Example 74, 3-(7-((4-((3S)-3-amino-1-piperidinyl)-3-pyridinyl)amino)imidazo[1,5-b]pyridazin-2-yl)-N-cyclopropyl-4-fluorobenzamide]	185	0.5	0.2				
C[C@H]1CCN(c2ccncc2Nc2ncc3ccc(-c4c(F)cccc4F)nn23)C[C@H]1N (single isomer, unassigned) [Example 98, N-(4-((cis)-3-amino-4-methylpiperidin-1-yl)pyridin-3-yl)-2-(2,6-difluorophenyl)imidazo[1,5-b]pyridazin-7-amine bis(2,2,2-trifluoroacetate)]							IC50 ([1]; bis(2,2,2-trifluoroacetate), read-out: KMS-12-BM IC50 IP): 12100 nM; IC50 ([2]; read-out: Pim-2 IC50 IP): 15.7 nM; IC50 ([3]; read-out: Pim-1 IC50 IP): 2.8 nM
N[C@H]1CCCN(c2ccncc2Nc2ncc3ccc(-c4ccccn4)nn23)C1 [Example 64, (S)-N-(4-(3-aminopiperidin-1-yl)pyridin-3-yl)-2-(pyridin-2-yl)imidazo[1,5-b]pyridazin-7-amine]	1760	6.4	1.5				
N[C@H]1CCCN(c2ccncc2Nc2ncc3ccc(-c4nccs4)nn23)C1 [Example 8, N-(4-((3S)-3-amino-1-piperidinyl)-3-pyridinyl)-2-(1,3-thiazol-2-yl)imidazo[1,5-b]pyridazin-7-amine]				726	3	1	
CS(=O)(=O)c1ccc(-c2ccc3cnc(Nc4cnccc4N4CCC[C@H](N)C4)n3n2)c(F)c1 [Example 22, N-(4-((3S)-3-amino-1-piperidinyl)-3-pyridinyl)-2-(2-fluoro-4-(methylsulfonyl)phenyl)imidazo[1,5-b]pyridazin-7-amine]				2390	9.1	1.2	
N[C@H]1CCCN(c2ccncc2Nc2ncc3ccc(-c4cccnc4F)nn23)C1 [Example 7, N-(4-((3S)-3-amino-1-piperidinyl)-3-pyridinyl)-2-(2-fluoro-3-pyridinyl)imidazo[1,5-b]pyridazin-7-amine]				6600	12	0.9	
C[C@@H]1C[C@H](N)CN(c2ccncc2Nc2nnc3ccc(-c4c(F)cccc4F)nn23)C1 [Example 90, N-(4-((3S,5R)-3-amino-5-methylpiperidin-1-yl)pyridin-3-yl)-6-(2,6-difluorophenyl)-[1,2,4]triazolo[4,3-b]pyridazin-3-amine bis(2,2,2-trifluoroacetate)]	509		1				IC50 ([2]; read-out: Pim-2 IC50 IP): 3.9 nM
N[C@H]1CCCN(c2ncncc2Nc2ncc3ccc(-c4c(F)cccc4F)nn23)C1 [Example 36, (S)-N-(4-((3S)-3-amino-1-piperidinyl)-5-pyrimidinyl)-2-(2,6-difluorophenyl)imidazo[1,5-b]pyridazin-7-amine]	> 31600	110	19.2				
C[C@H]1CN(c2ccncc2Nc2ncc3ccc(-c4nccs4)nn23)C[C@@H](N)[C@@H]1O [Example 21, (3R,4R,5S)-3-amino-5-methyl-1-(3-((2-(1,3-thiazol-2-yl)imidazo[1,5-b]pyridazin-7-yl)amino)-4-pyridinyl)-4-piperidinol]				209	0.6	0.3	
N[C@H]1C[C@@H](F)CN(c2ccncc2Nc2ncc3ccc(-c4ncccc4F)nn23)C1 [Example 53, N-(4-((3S,5R)-3-amino-5-fluoro-1-piperidinyl)-3-pyridinyl)-2-(3-fluoro-2-pyridinyl)imidazo[1,5-b]pyridazin-7-amine]	1200	10.9	3.4				

More lines, main results first:

IC50 [1, 4] [nM]	IC50 [2, 5] [nM]	IC50 [3, 6] [nM]	IC50 [1, 7] [nM]	IC50 [2, 8] [nM]	IC50 [3, 9] [nM]	SMILES	also measured
116	0.3	0.1				N[C@H]1C[C@@H](C(F)(F)F)CN(c2ccncc2Nc2ncc3ccc(-c4c(F)cccc4F)nn23)C1 (racemic) [Example 60, rac-N-(4-((cis)-3-amino-5-(trifluoromethyl)piperidin-1-yl)pyridin-3-yl)-2-(2,6-difluorophenyl)imidazo[1,5-b]pyridazin-7-amine bis(2,2,2-trifluoroacetate)]	
			6660	77	8	N[C@H]1CCCN(c2ccncc2Nc2ncc3ccc(-c4cccnc4Cl)nn23)C1 [Example 6, N-(4-((3S)-3-amino-1-piperidinyl)-3-pyridinyl)-2-(2-chloro-3-pyridinyl)imidazo[1,5-b]pyridazin-7-amine (2,2,2-trifluoroacetate)]	
	54.2	7.7				C[C@@H]1C[C@H](N)CN(c2ccncc2Nc2ncc3ccc(-c4ccccc4F)nn23)C1 (single isomer, unassigned) [Example 47, N-(4-((cis)-3-amino-5-methylpiperidin-1-yl)pyridin-3-yl)-2-(2-fluorophenyl)imidazo[1,5-b]pyridazin-7-amine tris(2,2,2-trifluoroacetate)]	IC50 ([1]; tris(2,2,2-trifluoroacetate), read-out: KMS-12-BM IC50 IP): 10200 nM
			> 31000	126	14	Fc1cccc(F)c1-c1ccc2cnc(Nc3cnccc3N3CCNCC3)n2n1 [Example 2, 2-(2,6-difluorophenyl)-N-(4-(1-piperazinyl)-3-pyridinyl)imidazo[1,5-b]pyridazin-7-amine]	
9860	34.4	8.6				Cc1cc(N)cc(-c2ccncc2Nc2ncc3ccc(-c4c(F)cccc4F)nn23)c1 [Example 42, N-(4-(3-amino-5-methylphenyl)-3-pyridinyl)-2-(2,6-difluorophenyl)imidazo[1,5-b]pyridazin-7-amine]	
148	0.5	0.1				C[C@@H]1CN(c2ccncc2Nc2ncc3ccc(-c4c(F)cccc4F)nn23)C[C@@H](N)[C@H]1O [Example 41, (3R,4S,5R)-3-amino-1-(3-((2-(2,6-difluorophenyl)imidazo[1,5-b]pyridazin-7-yl)amino)-4-pyridinyl)-5-methyl-4-piperidinol]	
